Test results reported in patent publication US9889115B2, “Fitness assay and associated methods” (priority 1998, dated 2018).

What was measured:
Assay type in all cases: cell-based
[1] = test system: multidrug-resistant HIV-1 clinical isolate, patient 22; assay: IC50 against multidrug-resistant clinical isolates (Table 9a); conditions: Human immunodeficiency virus 1
Procedure: (§1) The mutant multidrug-resistant HIV-1 strains corresponding to each patient, numbered 9-35, were genetically analyzed in terms of the nucleic acid sequences of the protease (PR) and a portion of the reverse transcriptase (RT) genes from which mutations in these enzymes were determined. The mutations in the protease and reverse transcriptase of the multidrug-resistant viruses isolated from each patient are shown below in Table 9b.

[2] = test system: multidrug-resistant HIV-1 clinical isolate, patient 34; assay: as above; conditions: Human immunodeficiency virus 1
Procedure: as §1

wild-type HIV-1 (WT) = assay: IC50 against wild-type HIV-1 (Table 9a); conditions: (WT)
[3] = test system: multidrug-resistant HIV-1 clinical isolate, patient 9; assay: microbe, parasite or virus in culture; conditions: Human immunodeficiency virus 1; Patient Isolate 9
Procedure: as §1

[4] = test system: multidrug-resistant HIV-1 clinical isolate, patient 15; assay: microbe, parasite or virus in culture; conditions: Human immunodeficiency virus 1; Patient Isolate 15
Procedure: as §1

[5] = test system: multidrug-resistant HIV-1 clinical isolate, patient 31; assay: microbe, parasite or virus in culture; conditions: Human immunodeficiency virus 1; Patient Isolate 31
Procedure: as §1

[6] = test system: multidrug-resistant HIV-1 clinical isolate, patient 14; assay: microbe, parasite or virus in culture; conditions: Human immunodeficiency virus 1; Patient Isolate 14
Procedure: as §1

[7] = test system: multidrug-resistant HIV-1 clinical isolate, patient 27; assay: microbe, parasite or virus in culture; conditions: Human immunodeficiency virus 1; Patient Isolate 27
Procedure: as §1

[8] = test system: multidrug-resistant HIV-1 clinical isolate, patient 11; assay: microbe, parasite or virus in culture; conditions: Human immunodeficiency virus 1; Patient Isolate 11
Procedure: as §1

[9] = test system: multidrug-resistant HIV-1 clinical isolate, patient 17; assay: microbe, parasite or virus in culture; conditions: Human immunodeficiency virus 1; Patient Isolate 17
Procedure: as §1

[10] = test system: multidrug-resistant HIV-1 clinical isolate, patient 20; assay: microbe, parasite or virus in culture; conditions: Human immunodeficiency virus 1; Patient Isolate 20
Procedure: as §1

[11] = test system: multidrug-resistant HIV-1 clinical isolate, patient 23; assay: microbe, parasite or virus in culture; conditions: Human immunodeficiency virus 1; Patient Isolate 23
Procedure: as §1

[12] = test system: multidrug-resistant HIV-1 clinical isolate, patient 30; assay: microbe, parasite or virus in culture; conditions: Human immunodeficiency virus 1; Patient Isolate 30
Procedure: as §1

[13] = test system: multidrug-resistant HIV-1 clinical isolate, patient 32; assay: microbe, parasite or virus in culture; conditions: Human immunodeficiency virus 1; Patient Isolate 32
Procedure: as §1

[14] = test system: multidrug-resistant HIV-1 clinical isolate, patient 12; assay: microbe, parasite or virus in culture; conditions: Human immunodeficiency virus 1; Patient Isolate 12
Procedure: as §1

[15] = test system: multidrug-resistant HIV-1 clinical isolate, patient 16; assay: microbe, parasite or virus in culture; conditions: Human immunodeficiency virus 1; Patient Isolate 16
Procedure: as §1

[16] = test system: multidrug-resistant HIV-1 clinical isolate, patient 29; assay: microbe, parasite or virus in culture; conditions: Human immunodeficiency virus 1; Patient Isolate 29
Procedure: as §1

[17] = test system: multidrug-resistant HIV-1 clinical isolate, patient 18; assay: microbe, parasite or virus in culture; conditions: Human immunodeficiency virus 1; Patient Isolate 18
Procedure: as §1

[18] = test system: multidrug-resistant HIV-1 clinical isolate, patient 28; assay: microbe, parasite or virus in culture; conditions: Human immunodeficiency virus 1; Patient Isolate 28
Procedure: as §1

[19] = test system: multidrug-resistant HIV-1 clinical isolate, patient 35; assay: microbe, parasite or virus in culture; conditions: Human immunodeficiency virus 1; Patient Isolate 35
Procedure: as §1

[20] = test system: multidrug-resistant HIV-1 clinical isolate, patient 19; assay: microbe, parasite or virus in culture; conditions: Human immunodeficiency virus 1; Patient Isolate 19
Procedure: as §1

[21] = test system: multidrug-resistant HIV-1 clinical isolate, patient 21; assay: microbe, parasite or virus in culture; conditions: Human immunodeficiency virus 1; Patient Isolate 21
Procedure: as §1

[22] = test system: multidrug-resistant HIV-1 clinical isolate, patient 13; assay: microbe, parasite or virus in culture; conditions: Human immunodeficiency virus 1; Patient Isolate 13
Procedure: as §1

[23] = test system: multidrug-resistant HIV-1 clinical isolate, patient 10; assay: microbe, parasite or virus in culture; conditions: Human immunodeficiency virus 1; Patient Isolate 10
Procedure: as §1

[24] = test system: multidrug-resistant HIV-1 clinical isolate, patient 33; assay: microbe, parasite or virus in culture; conditions: Human immunodeficiency virus 1; Patient Isolate 33
Procedure: as §1

HIV-1LAI = assay: PHA-PBMC assay, p24 Gag protein production; conditions: Human immunodeficiency virus 1; HIV-1LAI, SI; PHA-PBMC, p24 (Table 3)
HIV-1BAL = assay: PHA-PBMC assay, p24 Gag protein production; conditions: Human immunodeficiency virus 1; HIV-1BAL, NSI; PHA-PBMC, p24 (Table 3)
[25] = test system: multidrug-resistant HIV-1 clinical isolate, patient 2; assay: PHA-PBMC assay, p24 Gag protein production; conditions: Human immunodeficiency virus 1; Patient/Isolate code 2; PHA-PBMC, p24
Procedure: (§2) The patient profiles are shown below in Table 2.
(§3) To determine protease inhibitory activity against multidrug resistant HIV, the IC50's were measured against a panel of clinically isolated mutant HIV isolates.
(§4) All drug sensitivities were performed in triplicate. In order to determine whether the HIV isolates were syncitium inducing (SI) or non-syncitium inducing (NSI), an aliquot of viral stock supernatant, containing 100 TCID50, was cultured with 1×10^5 MT-2 cells in a 12-well plate. Cultures were maintained for four weeks and were examined for syncytium formation twice a week.

[26] = test system: multidrug-resistant HIV-1 clinical isolate, patient 5; assay: PHA-PBMC assay, p24 Gag protein production; conditions: Human immunodeficiency virus 1; Patient/Isolate code 5; PHA-PBMC, p24
Procedure: as §2, §3, §4

[27] = test system: multidrug-resistant HIV-1 clinical isolate, patient 7; assay: PHA-PBMC assay, p24 Gag protein production; conditions: Human immunodeficiency virus 1; Patient/Isolate code 7; PHA-PBMC, p24
Procedure: as §2, §3, §4

[28] = test system: multidrug-resistant HIV-1 clinical isolate, patient 4; assay: PHA-PBMC assay, p24 Gag protein production; conditions: Human immunodeficiency virus 1; Patient/Isolate code 4; PHA-PBMC, p24
Procedure: as §2, §3, §4

[29] = test system: multidrug-resistant HIV-1 clinical isolate, patient 6; assay: PHA-PBMC assay, p24 Gag protein production; conditions: Human immunodeficiency virus 1; Patient/Isolate code 6; PHA-PBMC, p24
Procedure: as §2, §3, §4

[30] = test system: multidrug-resistant HIV-1 clinical isolate, patient 3; assay: PHA-PBMC assay, p24 Gag protein production; conditions: Human immunodeficiency virus 1; Patient/Isolate code 3; PHA-PBMC, p24
Procedure: as §2, §3, §4

HIV-1ERS104pre = assay: PHA-PBMC assay, p24 Gag protein production; conditions: Human immunodeficiency virus 1; HIV-1ERS104pre, SI; PHA-PBMC, p24
Procedure: as §2, §3, §4

[31] = test system: multidrug-resistant HIV-1 clinical isolate, patient 1; assay: PHA-PBMC assay, p24 Gag protein production; conditions: Human immunodeficiency virus 1; Patient/Isolate code 1; PHA-PBMC, p24
Procedure: as §2, §3, §4

[32] = test system: multidrug-resistant HIV-1 clinical isolate, patient 8; assay: PHA-PBMC assay, p24 Gag protein production; conditions: Human immunodeficiency virus 1; Patient/Isolate code 8; PHA-PBMC, p24
Procedure: as §2, §3, §4

HIV = assay: influence of human protein binding on antiviral activity
Text: These failures have been ascribed, but not definitively proven, to be due to excessive binding to human plasma proteins, particularly serum albumin and AAG.

Cc1c(O)cccc1C(=O)N[C@@H](CSc1ccccc1)[C@H](O)CN1C[C@H]2CCCC[C@H]2C[C@H]1C(=O)NC(C)(C)C [Nel., Nelfinavir]
IC50 [1]: 100 nM | IC50 [2]: 260 nM | IC50 (wild-type HIV-1 (WT); Human immunodeficiency virus 1): 31 nM | IC50 [3]: 980 nM | IC50 [4]: 470 nM | IC50 [5]: 240 nM | IC50 [6]: 10 nM | IC50 [7]: > 1250 nM | IC50 [8]: 30 nM | IC50 [9]: 520 nM | IC50 [10]: 580 nM | IC50 [11]: 280 nM | IC50 [12]: 520 nM | IC50 [13]: 220 nM | IC50 [14]: > 1250 nM | IC50 [15]: 860 nM | IC50 [16]: 670 nM | IC50 [17]: 600 nM | IC50 [18]: > 1250 nM | IC50 [19]: 480 nM | IC50 [20]: 500 nM | IC50 [21]: > 1250 nM | IC50 [22]: 470 nM | IC50 [23]: > 1250 nM | IC50 [24]: 350 nM

CC(C)CN(C[C@@H](O)[C@H](Cc1ccccc1)NC(=O)O[C@H]1CCOC1)S(=O)(=O)c1ccc(N)cc1 [AMV, Amprenavir]
IC50 (HIV-1LAI): 19 nM | IC50 (HIV-1BAL): 14 nM | IC50 [25]: 240 nM | IC50 [26]: 280 nM | IC50 [27]: 420 nM | IC50 [28]: 400 nM | IC50 [29]: 110 nM | IC50 [30]: 330 nM | IC50 (HIV-1ERS104pre): 21 nM | IC50 [31]: 290 nM | IC50 [32]: 220 nM | fold of IC50 relative to (−) (HIV; (−), no added protein): 1 × | fold of IC50 relative to (−) (HIV; Alb: human serum albumin (HAS, 300 μM)): 1 × | IC50 (HIV; Human immunodeficiency virus 1, (−), no added protein): 29 nM | IC50 (HIV; Human immunodeficiency virus 1, Alb: human serum albumin (HAS, 300 μM)): 21 nM | IC50 (HIV; Human immunodeficiency virus 1, human alpha acid glycoprotein (AAG, 10 μM)): 180 nM | fold of IC50 relative to (−) (HIV; human alpha acid glycoprotein (AAG, 10 μM)): 6 ×

Nc1ccn([C@H]2CC[C@@H](CO)O2)c(=O)n1 [DDC, 2′3′-dideoxycytidine]
IC50 (wild-type HIV-1 (WT)): 243 nM

Nc1ccn([C@@H]2CS[C@H](CO)O2)c(=O)n1 [Compound 3TC]
IC50 (wild-type HIV-1 (WT)): 264 nM
